Where two headings read alike, the source gives them in different places. Values belong to the compound of their own block, whether it stands above or below them.
Tests used:
[1] = BCS classification; type: physicochemical
[2] = Storage stability: appearance, assay/label strength (LS), total impurities/degradation products; type: physicochemical; settings: for physical and chemical stability: open container, 1 month at 40° C./75% RH
Procedure: In some embodiments, the film-coated tablets were packaged in 75 and 100 mL white HDPE bottles (Lots A and B, respectively, as described in Tables 11A, 11B) with 1 g silica gel desiccant canisters and a polyester fiber coil. The 75 and 100 mL HDPE bottles contained fourteen and twenty eight tablets, respectively. Each HDPE bottle was capped using a white, continuous thread, child-resistant polypropylene screw cap with an […], aluminum-faced line. The packaged tablets (14 and 28 counts) were evaluated for stability at 40° C./75% RH and 25° C./60% RH. Additionally, the 14-count bottles (without cap) were evaluated for stability under open conditions at 40° C./75% RH.
For each of the impact studies, the sofosbuvir/velpatasvir SSD/voxilaprevir SSD tablets were packaged in a designated commercial packaging configuration (28-count, 100 mL HPDE bottle, coil, 1 g desiccant), and stored for 12 weeks at 25° C./60% RH and 40° C./75% RH. Tablets were also packaged in open containers (28-count, 100 mL HPDE bottle without cap) and stored for 4 weeks at 40° C./75% RH and for 1 week at 50° C./92% RH.
The sofosbuvir/velpatasvir SSD/voxilaprevir SSD tablets were packaged in the designated commercial packaging configuration (28-count, 100 mL HPDE bottle, coil, 1 g desiccant), and stored for 6 months at 25° C./60% RH and 40° C./75% RH.

[3] = Tablet dissolution as a function of medium pH and composition (Apparatus II, 75 rpm, 900 mL, 37° C.); type: physicochemical; settings: Formulation G tablets
[4] = Velpatasvir single and multiple oral dose pharmacokinetics; type: in vivo, human; settings: for concentration at 24 h: human, plasma, oral, 5 mg, mean
Procedure: Following single and multiple oral doses of velpatasvir, maximum plasma concentrations occurred between 1.50 and 3.25 hours (median tmax).

[5] = Photostability (light exposure, ICH Q1B); type: physicochemical
Procedure: In some embodiments, and the Examples presented herein, the tablet formulation includes sofosbuvir having Form 6 and, optionally, a trace amount of Form 7.
Tablet cores and film-coated tablets were evaluated per ICH Q1B guidelines with a total of illumination of more than 1.2 million-lux hours and a total irradiance of more than 200 W·hr/m^2.

[6] = Tablet dissolution in 50 mM sodium acetate buffer pH 5.0 with 2.0% w/v Polysorbate 80 and 0.001% w/v BHT, 75 rpm, 900 mL, 37° C., USP Type II; type: physicochemical; settings: for dissolution at 30 minutes: after 4 weeks open at 40° C./75% RH
[7] = Oral bioavailability of crystalline voxilaprevir forms in a dog model; settings: in vivo, read-out: oral bioavailability, less than that of crystalline Form VI
Procedure: (§1) As described previously, Form VIII of voxilaprevir is characterized by an X-ray powder diffractogram comprising the following peaks (±0.2°): at 7.8, 8.2, and 20.2°2θ, as determined on a diffractometer using Cu-Kα radiation.

[8] = Hygroscopicity; type: physicochemical
From the text: (§2) In some embodiments, and the Examples presented herein, the tablet formulation includes sofosbuvir having Form 6 and, optionally, a trace amount of Form 7. […] Form 6 of sofosbuvir is the thermodynamically stable form and remains physically stable when suspended in water. Form 7 of Sofosbuvir, while physically stable in water for short periods of time, can be converted to Form 6 with prolonged stirring.
Voxilaprevir SSD is hygroscopic, with a reversible weight gain of 11% when cycled between 0% and 90% RH at 25° C.

[9] = Solubility (aqueous, spray-drying solvents); type: physicochemical
From the text: as §2, §1
The selection of a suitable solvent for the spray drying process was based on (1) the solubility of voxilaprevir EAS, Form II and copovidone in the solvent, (2) the chemical stability of voxilaprevir EAS, Form II in the presence of the solvent, and (3) the impact of the solvent on feed solution properties and particle properties of the resulting solid dispersion. Acetone and dichloromethane were evaluated as solvents for the feed solution because of their low boiling points and the high solubility of voxilaprevir EAS, Form II (>300 mg/mL) in these solvents.

bioavailability [7]: ~50%
SMILES: CC[C@@H]1[C@@H]2CN(C(=O)[C@H](C(C)(C)C)NC(=O)O[C@@H]3C[C@H]3CCCCC(F)(F)c3nc4ccc(OC)cc4nc3O2)[C@@H]1C(=O)N[C@]1(C(=O)NS(=O)(=O)C2(C)CC2)C[C@H]1C(F)F [crystalline Form VIII]

solubility ([9]; acetone and dichloromethane, organic solvent or mixture, read-out: solubility in acetone and dichloromethane): > 300 mg/mL
SMILES: CC[C@@H]1[C@@H]2CN(C(=O)[C@H](C(C)(C)C)NC(=O)O[C@@H]3C[C@H]3CCCCC(F)(F)c3nc4ccc(OC)cc4nc3O2)[C@@H]1C(=O)N[C@]1(C(=O)NS(=O)(=O)C2(C)CC2)C[C@H]1C(F)F [voxilaprevir EAS, Form II]

Further lines, the compound ahead of its results:

SMILES: COC[C@H]1C[C@@H](c2ncc(-c3ccc4c(c3)COc3cc5c(ccc6nc([C@@H]7CC[C@H](C)N7C(=O)[C@@H](NC(=O)OC)C(C)C)[nH]c65)cc3-4)[nH]2)N(C(=O)[C@H](NC(=O)OC)c2ccccc2)C1 [Velpatasvir, methyl {(2S)-1-[(2S,5S)-2-(9-{2-[(2S,4S)-1-{(2R)-2-[(methoxycarbonyl)amino]-2-phenylacetyl}-4-(methoxymethyl)pyrrolidin-2-yl]-1H-imidazol-5-yl}-1,11-dihydroisochromeno[4′,3′:6,7]naphtho[1,2-d]imidazol-2-yl)-5-methylpyrrolidin-1-yl]-3-methyl-1-oxobutan-2-yl}carbamate]
aqueous solubility, pH dependence [1]: pH-dependent solubility | total impurities/degradation products ([2]; packaged Formulation G tablets (Tables 11A, 11B), 40° C./75% RH and 25° C./60% RH for 6 months): 0.0% | total impurities/degradation products ([2]; tablet Lots A-D from sub-potent/super-potent VEL SSD and VOX SSD, all conditions): 0.0% | total impurities/degradation products ([2]; tablets from SSDs made with high-peroxide copovidone (544 ppm VEL SSD, 655 ppm VOX SSD)): 0.0% | total impurities/degradation products ([2]; tablets from VEL SSD with 6.0% residual ethanol and VOX SSD with 2.1% residual acetone, all conditions): 0.0% | total impurities/degradation products ([2]; tablets from VEL SSD with 7.0% and VOX SSD with 3.2% water content, all conditions): 0.0% | dissolution at 60 minutes in pH 4.0 and 5.0 containing 2.0% w/v polysorbate 80 [3]: complete dissolution | dissolution in pH 2.0, 4.5 and 6.8 buffers, FaSSIF and FeSSIF [3]: Incomplete dissolution | dose linearity of PK ([4]; dose range of 5 to 450 mg): nonlinear PK | concentration at 24 h ([4]; multiple dose 5 mg, read-out: Ctau): 2.2 ng/mL | concentration at 24 h ([4]; single dose 5 mg, read-out: Clast): 1.4 ng/mL | level of degradation products ([5]; tablets film-coated to weight gains of 2.1 to 5.4%, ICH Q1B): 0.4% | loss after exposure to light ([5]; uncoated tablet cores (Formulation G), ICH Q1B): up to 0.3% | dissolution at 30 minutes ([6]; SSD potency tablets Lot A): 86% | dissolution at 30 minutes ([6]; SSD potency tablets Lot B): 91% | release at 30 minutes ([6]; tablets containing neat amorphous velpatasvir free base (physical mixture with copovidone)): 62% | release at 30 minutes ([6]; tablets containing velpatasvir SSD): 91%

SMILES: CC(C)OC(=O)[C@@H](C)N[P@](=O)(OC[C@H]1O[C@@H](n2ccc(=O)[nH]c2=O)[C@](C)(F)[C@@H]1O)Oc1ccccc1 [sofosbuvir Form 6]
hygroscopicity [8]: non-hygroscopic | physical and chemical stability [2]: physically and chemically stable | photosensitivity [5]: not photosensitive | solubility ([9]; water, 37° C., read-out: aqueous solubility): ≥ 2 mg/mL

SMILES: CC(C)OC(=O)[C@@H](C)N[P@](=O)(OC[C@H]1O[C@@H](n2ccc(=O)[nH]c2=O)[C@](C)(F)[C@@H]1O)Oc1ccccc1 [sofosbuvir Form 7]
hygroscopicity [8]: non-hygroscopic | physical and chemical stability [2]: physically and chemically stable | photosensitivity [5]: not photosensitive

Source: patent US10912814B2, “Combination formulation of three antiviral compounds” (priority 2016, dated 2021)
